Measurements published in US20150299250A1, “MACROCYCLIC COMPOUNDS AND USES THEREOF” (ADELAIDE RESEARCH & INNOVATION PTY LTD, priority 2012, published 2015).
Where a SMILES comes first, the peptide text is derived from it. The star is where a group is joined. Cbz = O=C(OCc1ccccc1)*

Legend:
[1] = test system: WE-68 Ewing's sarcoma cells; assay: Cell viability assay (7AAD, 48 hours), WE-68; type: cell-based; conditions: 48 hours exposure; read-out: Cancer cell lines IC50 (μM) WE-68
Method: (§1) Cell viability assays were performed as previously described. Briefly, cells were seeded in 96 well microtiterplates at a density of 3×10^4 cells per well in the presence of the indicated chemical. Cells were harvested 48 hours post-treatment, centrifuged at 1,300×g, washed in phosphate-buffered saline (PBS) and stained with 7AAD solution (2 μg/mL) (7-amino-actinomycin-D, Invitrogen, Carlsbad, Calif.) for 10 mins at room temperature. Viable cells were determined with the use of a FACS Calibur flow cytometer (Becton Dickinson Immunocytometry Systems), and analyzed with the use of FLOWJO (Tree Star, Inc) and GraphPad Prism (GraphPad Software Inc).
(§2) WE-68 and VH-64 Ewing's sarcoma cells were kindly supplied by F. van Valen (Department of Orthopaedic Surgery, Westfalische-Wilhelms-University, Germany).TC-252 and STA-ET-1 Ewing's sarcoma cells were kindly provided by G. Hamilton (Department of Surgery, University of Vienna, Austria) or P. Ambros (Children's Cancer Research Institute, St Anna Children's Hospital, Vienna, Austria). Primary human embryonic fibroblasts or primary human osteoblasts were collected from the Women's and Children's Hospital (North Adelaide, South Australia, Australia) or Royal Adelaide Hospital with patient consent. Mouse Embryonic Fibroblasts (MEFs) and its p53-null derivative were kindly supplied by Guillermina Lozano (Department of Genetics, Anderson Cancer Centre, University of Texas, Houston, Tex., USA). WE-68 cell lines were grown in RPMI-1640 media, whilst human embryonic fibroblasts and MEFs were grown in Dulbecco's Modified Eagle's Medium (DMEM). Media was supplemented with 10% FCS, 1% PSG and 10 mM HEPES. All cells were maintained at 37° C. in a humidified atmosphere of 5% CO2.

[2] = target: T1, 20S proteasome CP-L activity (Oryctolagus cuniculus, UniProt A0A5F9DQW2); assay: In vitro proteasome activity assay, CP-L (Z-nLPnLD-AMC); type: biochemical, rabbit; conditions: purified 20S proteasome; highest concentration tested 25,000 nM
T1 construct: Purified rabbit 20S proteasome
T1 sequence (A0A5F9DQW2 1-212): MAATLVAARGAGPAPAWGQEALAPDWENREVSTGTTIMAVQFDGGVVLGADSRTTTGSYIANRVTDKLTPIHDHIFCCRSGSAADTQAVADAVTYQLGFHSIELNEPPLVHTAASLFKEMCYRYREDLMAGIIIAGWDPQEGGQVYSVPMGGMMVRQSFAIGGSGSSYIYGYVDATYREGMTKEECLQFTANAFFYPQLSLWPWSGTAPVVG
Method: We initially determined the ability of the novel tripeptide MG132 analogues 1-6 and the macrocycles 3a and 4a to inhibit the three separate protease activities of the 20S proteasome (CT-L, -T-L and CP-L). The assays were performed in vitro using purified 20S proteasome/inhibitor mixtures, with the activity of each subunit of the proteasome assessed upon incubation with its respective target peptide. […] In addition, there is no apparent clear-cut preference for the length of tether (compare compounds 1 to 4), while the introduction of an aryl group at P3 (as in 6) is well tolerated.
Purified rabbit 20S proteasome and fluorogenic CT-L substrate (Suc-LLVY-AMC) were purchased from Boston Biochem (Cambridge, Mass., USA). The T-L and CP-L fluorogenic substrates (Ac-RLR-AMC and Z-nLPnLD-AMC) were purchased from Enzo Life Sciences (Farmingdale, N.Y., USA). The 20S proteasome was diluted to 0.2 μg/μL in 20S proteasome buffer (50 mM HEPES pH 7.6, 150 mM NaCl and 1 mM DDT) and stored at −80° C. Purified 20S proteasome (8 ng) was pre-incubated with the indicated concentrations of inhibitors for 15 minutes and subsequently added to the AMC-labeled substrate peptide (50 μM) in assay buffer (25 mM HEPES, pH 7.5, 0.5 mM EDTA, 0.05% NP-40, and 0.001% SDS (w/v)) at 37° C. for 2 hours. Fluorescent substrate cleavage by the 20S proteasome was linear during this incubation timeframe (Supplementary Figure S4. Hydrolysed 7-amino-4-methylcoumarin (AMC) was subsequently detected with the FLUOstar OPTIMA microplatefluorometer at excitation/emission of 390/460 nm. The activity was estimated in relative fluorescence units and half of the maximal inhibitory activity of the proteasome is represented by IC50 values. A minimum of three biological replicates were performed for each data point.

[3] = test system: primary human osteoblasts; assay: Cell viability assay (7AAD, 48 hours), normal osteoblasts; type: cell-based; conditions: Osteoblast, 48 hours exposure, read-out: Normal cell lines IC50 (μM) Osteoblasts
Method: as §1, §2

[4] = test system: primary human embryonic fibroblasts; assay: Cell viability assay (7AAD, 48 hours), normal fibroblasts; type: cell-based; conditions: Fibroblast, 48 hours exposure, read-out: Normal cell lines IC50 (μM) Fibroblasts
Method: as §1, §2

[5] = test system: STA-ET-1 Ewing's sarcoma cells; assay: Cell viability assay (7AAD, 48 hours), STA-ET-1; type: cell-based; conditions: 48 hours exposure; read-out: Cancer cell lines IC50 (μM) STA-ET-1
Method: as §1, §2

[6] = target: T2, 20S proteasome chymotrypsin-like (CT-L) activity (Oryctolagus cuniculus, UniProt G1T4Q9); assay: In vitro proteasome activity assay, CT-L (Suc-LLVY-AMC); type: biochemical, rabbit; conditions: for IC50: purified 20S proteasome
T2 sequence (G1T4Q9 1-263): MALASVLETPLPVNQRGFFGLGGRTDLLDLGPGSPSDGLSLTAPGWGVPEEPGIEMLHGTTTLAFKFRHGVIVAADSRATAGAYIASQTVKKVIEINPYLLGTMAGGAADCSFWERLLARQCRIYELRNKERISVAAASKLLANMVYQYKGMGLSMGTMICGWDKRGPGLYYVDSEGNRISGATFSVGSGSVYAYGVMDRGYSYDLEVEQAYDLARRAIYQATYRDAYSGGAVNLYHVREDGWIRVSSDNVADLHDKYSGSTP
Method: The assays were performed in vitro using purified 20S proteasome/inhibitor mixtures, with the activity of each subunit of the proteasome assessed upon incubation with its respective target peptide.
Purified rabbit 20S proteasome and fluorogenic CT-L substrate (Suc-LLVY-AMC) were purchased from Boston Biochem (Cambridge, Mass., USA). The T-L and CP-L fluorogenic substrates (Ac-RLR-AMC and Z-nLPnLD-AMC) were purchased from Enzo Life Sciences (Farmingdale, N.Y., USA). The 20S proteasome was diluted to 0.2 μg/μL in 20S proteasome buffer (50 mM HEPES pH 7.6, 150 mM NaCl and 1 mM DDT) and stored at −80° C. Purified 20S proteasome (8 ng) was pre-incubated with the indicated concentrations of inhibitors for 15 minutes and subsequently added to the AMC-labeled substrate peptide (50 μM) in assay buffer (25 mM HEPES, pH 7.5, 0.5 mM EDTA, 0.05% NP-40, and 0.001% SDS (w/v)) at 37° C. for 2 hours.

[7] = test system: normal cell lines (fibroblasts, osteoblasts); assay: Cell viability assay, normal cell lines (average); type: cell-based; conditions: Homo sapiens; average of fibroblasts and osteoblasts
Method: as §1, §2

[8] = test system: TC-252 Ewing's sarcoma cells; assay: Cell viability assay (7AAD, 48 hours), TC-252; type: cell-based; conditions: 48 hours exposure; read-out: Cancer cell lines IC50 (μM) TC-252
Method: as §1, §2

[9] = test system: VH-64 Ewing's sarcoma cells; assay: Cell viability assay (7AAD, 48 hours), VH-64; type: cell-based; conditions: 48 hours exposure; read-out: Cancer cell lines IC50 (μM) VH-64
Method: as §1, §2

C#CCOc1ccc(C[C@@H](C=O)NC(=O)[C@@H](NC(=O)[C@H](CCCCN=[N+]=[N-])NC(=O)OCc2ccccc2)[C@@H](C)CC)cc1 [Compound 5]
IC50 [1]: 0.98 µM | IC50 [2]: > 25000 nM | IC50 [3]: 4.8 µM | IC50 [4]: 19.9 µM | IC50 [5]: 1 µM | increase in potency against CT-L relative to compound 4 (Leu at P2) [6]: 7.5 fold | IC50 [6]: 21 nM | IC50 [7]: 12.4 µM | IC50 [8]: 0.42 µM | IC50 [9]: 1.1 µM

C#CCOc1ccc(C[C@@H](C=O)NC(=O)[C@H](CC(C)C)NC(=O)[C@H](CCN=[N+]=[N-])NC(=O)OCc2ccccc2)cc1 [Compound 2]
IC50 [1]: 4.7 µM | IC50 [2]: > 25000 nM | IC50 [3]: 13.6 µM | IC50 [4]: 29.4 µM | IC50 [5]: 5.4 µM | IC50 [6]: 355 nM | IC50 [7]: 21.5 µM | IC50 [8]: 2.3 µM | IC50 [9]: 4.9 µM

C#CCOc1ccc(C[C@@H](C=O)NC(=O)[C@H](CC(C)C)NC(=O)[C@H](CCCCN=[N+]=[N-])NC(=O)OCc2ccccc2)cc1 [Compound 4]
IC50 [1]: 10.8 µM | IC50 [2]: > 25000 nM | IC50 [3]: 10.4 µM | IC50 [4]: 39.5 µM | IC50 [5]: 2.6 µM | IC50 [6]: 150 nM | IC50 [7]: 25 µM | IC50 [8]: 1.6 µM | IC50 [9]: 1.9 µM

C#CCOc1ccc(C[C@@H](C=O)NC(=O)[C@H](CC(C)C)NC(=O)[C@H](CCCN=[N+]=[N-])NC(=O)OCc2ccccc2)cc1 [Compound 3]
IC50 [1]: 0.47 µM | IC50 [2]: > 25000 nM | IC50 [3]: 18.8 µM | IC50 [4]: 8.8 µM | IC50 [5]: 2.6 µM | IC50 [6]: 54 nM | IC50 [7]: 13.8 µM | IC50 [8]: 1.2 µM | IC50 [9]: 2.1 µM

C#CCOc1ccc(C[C@@H](C=O)NC(=O)[C@H](CC(C)C)NC(=O)[C@H](Cc2ccc(N=[N+]=[N-])cc2)NC(=O)OCc2ccccc2)cc1 [Compound 6]
IC50 [1]: 1.1 µM | IC50 [2]: > 25000 nM | IC50 [3]: 11.6 µM | IC50 [4]: 45.4 µM | IC50 [5]: 2.4 µM | IC50 [6]: 23 nM | IC50 [7]: 28.5 µM | IC50 [8]: 0.64 µM | IC50 [9]: 1.9 µM

CC(C)C[C@@H](C=O)NC(=O)[C@H](CC(C)C)NC(=O)[C@H](CC(C)C)NC(=O)OCc1ccccc1 [MG132, reference compound] (Cbz-Leu-Leu-Leu-aldehyde)
IC50 [1]: 0.68 µM | IC50 [2]: 545 nM | IC50 [3]: 2.7 µM | IC50 [4]: 2.8 µM | IC50 [5]: 0.59 µM | IC50 [6]: 1.2 nM | IC50 [7]: 2.8 µM | IC50 [8]: 0.49 µM | IC50 [9]: 0.68 µM
